From ChEMBL document CHEMBL1157281, “Antineoplastic agents. 400. Synthesis of the Indian Ocean marine sponge cyclic heptapeptide phakellistatin 2” (1999)
Converted amounts (≈) assume the structure as drawn. Residues, ends and D or L forms follow the SMILES beside them.

Tested on: P388
Experiment: Growth inhibition of mouse P388 cells
Format: functional
Conditions: read-out: ED50 (the source's name)

CC[C@H](C)[C@@H]1NC(=O)[C@@H]2CCCN2C(=O)[C@H](Cc2ccccc2)NC(=O)[C@@H]2CCCN2C(=O)[C@H](Cc2ccc(O)cc2)NC(=O)[C@@H]2CCCN2C(=O)[C@H]([C@@H](C)CC)NC1=O.Cl [PHAKELLISTATIN 2 (SYNTHETIC)] (cyclo(FPIIPYP))
EC50: 24 mg/L

CC[C@H](C)[C@@H]1NC(=O)[C@@H]2CCCN2C(=O)[C@H](Cc2ccccc2)NC(=O)[C@@H]2CCCN2C(=O)[C@H](Cc2ccc(O)cc2)NC(=O)[C@@H]2CCCN2C(=O)[C@H]([C@@H](C)CC)NC1=O [PHAKELLISTATIN 2] (cyclo(FPIIPYP))
EC50: 0.34 mg/L (≈ 0.411 µM)
